ChEMBL document CHEMBL5550194, “Design and synthesis of phosphoryl-substituted steroidal pyridazines (Pho-STPYRs) as potent estrogen receptor alpha inhibitors: targeted treatment of hormone-dependent breast cancer cells” (RSC Med Chem, 2024)
Activity calls are given as the source filed them. No cut-off for these calls is given here.

Legend:
MCF7 [1] = experiment: Antiproliferative activity against human MCF7 cells assessed as inhibition of cell growth incubated for 72 hrs by MTT assay; format: functional, cell-based; details: MCF7, 72 h
MDA-MB-231 = experiment: Antiproliferative activity against human MDA-MB-231 cells assessed as inhibition of cell growth incubated for 72 hrs by MTT assay; format: functional, cell-based; details: MDA-MB-231, 72 h
[2] = Cytotoxicity against human THP-1 cells assessed as inhibition of cell growth incubated for 72 hrs by MTT assay; format: toxicity, cell-based
Cytochrome P450 7B1 = target: T1, Cytochrome P450 7B1 (Homo sapiens, UniProt O75881); experiment: Binding affinity to recombinant human CYP7B1 by spectrophotometric titration method; format: ADME; details: recombinant enzyme
T1 sequence (O75881 whole entry): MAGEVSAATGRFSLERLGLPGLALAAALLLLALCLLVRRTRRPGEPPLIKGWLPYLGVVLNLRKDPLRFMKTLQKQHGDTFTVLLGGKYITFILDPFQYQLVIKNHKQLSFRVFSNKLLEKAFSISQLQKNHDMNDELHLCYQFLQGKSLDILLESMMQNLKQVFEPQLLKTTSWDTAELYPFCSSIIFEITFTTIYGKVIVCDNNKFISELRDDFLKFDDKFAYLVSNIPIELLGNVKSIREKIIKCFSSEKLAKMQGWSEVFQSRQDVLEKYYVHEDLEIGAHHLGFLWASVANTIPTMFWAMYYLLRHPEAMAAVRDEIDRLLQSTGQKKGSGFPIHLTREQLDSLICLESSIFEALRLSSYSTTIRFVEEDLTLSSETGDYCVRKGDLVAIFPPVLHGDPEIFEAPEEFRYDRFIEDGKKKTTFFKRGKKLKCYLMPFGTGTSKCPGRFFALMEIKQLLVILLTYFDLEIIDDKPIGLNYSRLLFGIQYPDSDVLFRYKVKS

MCF7 [3] = experiment: Downregulation of CDK4 protein expression in human MCF7 cells at 1.7 to 15 uM measured after 48 hrs by immunoblot analysis; format: functional, cell-based; details: dose 1.7-15 µM
MCF7 [4] = experiment: Anti-estrogenic activity in human MCF7 cells assessed as reduction in GREB1 protein expression at 1.7 to 15 uM measured after 48 hrs by immunoblot analysis; format: functional, cell-based; details: dose 1.7-15 µM
MCF7 [5] = experiment: Anti-estrogenic activity in human MCF7 cells transfected with luciferase gene under control of estrogen response elements cotransfected with beta-galactosidase assessed as reduction in 17beta-estradiol induced ERalpha protein expression by measuring reduction in luciferase activity measured after 24 hrs; format: functional, cell-based; details: dose 1.7-20 µM
MCF7 [6] = experiment: Anti-estrogenic activity in human MCF7 cells assessed as reduction in ERalpha protein expression at 1.7 to 15 uM measured after 48 hrs by immunoblot analysis; format: functional, cell-based; details: dose 1.7-15 µM
MCF7 [7] = experiment: Induction of cell death in human MCF7 cells assessed as reduction in Bcl-2 protein expression measured after 48 hrs by immunoblot analysis; format: functional, cell-based; details: dose 1.7-15 µM
MCF7 [8] = experiment: Downregulation of cyclin D1 protein expression in human MCF7 cells at 1.7 to 15 uM measured after 48 hrs by immunoblot analysis; format: functional, cell-based; details: dose 1.7-15 µM
[9] = target: T2, Steroid 17-alpha-hydroxylase/17,20 lyase (Homo sapiens, UniProt P05093); experiment: Binding affinity to recombinant human CYP17A1 by spectrophotometric titration method; format: ADME; details: recombinant enzyme
T2 sequence (P05093 whole entry): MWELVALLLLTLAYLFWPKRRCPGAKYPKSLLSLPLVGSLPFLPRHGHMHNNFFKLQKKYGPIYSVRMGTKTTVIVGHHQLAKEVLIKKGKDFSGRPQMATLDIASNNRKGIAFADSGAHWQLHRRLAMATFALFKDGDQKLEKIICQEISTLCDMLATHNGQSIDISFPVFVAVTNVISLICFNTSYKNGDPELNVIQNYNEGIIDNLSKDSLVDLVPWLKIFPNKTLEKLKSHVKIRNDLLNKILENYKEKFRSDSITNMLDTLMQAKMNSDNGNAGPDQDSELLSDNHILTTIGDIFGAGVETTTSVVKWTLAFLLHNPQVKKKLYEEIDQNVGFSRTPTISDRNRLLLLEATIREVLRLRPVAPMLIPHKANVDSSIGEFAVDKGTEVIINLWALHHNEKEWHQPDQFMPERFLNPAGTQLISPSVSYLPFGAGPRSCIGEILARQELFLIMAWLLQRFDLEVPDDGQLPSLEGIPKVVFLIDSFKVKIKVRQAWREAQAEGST

MCF7 [10] = experiment: Effect on E-cadherin protein expression in human MCF7 cells at 1.7 to 15 uM measured after 48 hrs by immunoblot analysis; format: functional, cell-based; details: dose 1.7-15 µM
Steroid 21-hydroxylase = target: T3, Steroid 21-hydroxylase (Homo sapiens, UniProt P08686); experiment: Binding affinity to recombinant human CYP21A2 by spectrophotometric titration method; format: ADME; details: recombinant enzyme
T3 sequence (P08686 whole entry): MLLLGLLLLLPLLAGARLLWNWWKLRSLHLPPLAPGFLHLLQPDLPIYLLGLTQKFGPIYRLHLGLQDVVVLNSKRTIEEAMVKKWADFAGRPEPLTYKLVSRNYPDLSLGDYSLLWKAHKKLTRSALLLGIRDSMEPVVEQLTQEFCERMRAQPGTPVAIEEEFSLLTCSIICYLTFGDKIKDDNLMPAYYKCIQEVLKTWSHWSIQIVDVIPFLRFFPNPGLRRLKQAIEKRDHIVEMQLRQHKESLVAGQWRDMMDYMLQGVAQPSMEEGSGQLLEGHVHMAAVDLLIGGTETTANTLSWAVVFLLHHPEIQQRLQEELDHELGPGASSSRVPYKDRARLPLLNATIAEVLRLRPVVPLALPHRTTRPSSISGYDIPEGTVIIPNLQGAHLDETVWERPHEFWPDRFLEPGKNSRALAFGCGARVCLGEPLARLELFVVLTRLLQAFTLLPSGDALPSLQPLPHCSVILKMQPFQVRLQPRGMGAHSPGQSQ

Aromatase = target: T4, Aromatase (Homo sapiens, UniProt P11511); experiment: Binding affinity to recombinant human CYP19A1 by spectrophotometric titration method; format: ADME; details: recombinant enzyme
T4 sequence (P11511 whole entry): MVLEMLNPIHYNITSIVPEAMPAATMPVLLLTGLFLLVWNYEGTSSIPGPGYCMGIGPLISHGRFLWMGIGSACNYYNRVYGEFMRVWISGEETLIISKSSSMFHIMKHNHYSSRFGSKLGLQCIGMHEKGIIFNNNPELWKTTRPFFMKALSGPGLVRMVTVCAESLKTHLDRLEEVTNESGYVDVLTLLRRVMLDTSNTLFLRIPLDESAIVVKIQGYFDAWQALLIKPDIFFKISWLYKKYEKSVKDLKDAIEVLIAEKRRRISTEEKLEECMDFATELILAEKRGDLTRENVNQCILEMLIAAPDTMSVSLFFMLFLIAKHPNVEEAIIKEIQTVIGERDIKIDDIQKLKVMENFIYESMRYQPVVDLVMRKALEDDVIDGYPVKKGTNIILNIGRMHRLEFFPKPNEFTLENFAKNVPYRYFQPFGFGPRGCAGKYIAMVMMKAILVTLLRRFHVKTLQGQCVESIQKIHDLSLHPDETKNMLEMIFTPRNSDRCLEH

MCF7 [11] = experiment: Induction of cell death in human MCF7 cells assessed as accumulation of cleaved PARP level at 1.7 to 15 uM measured after 48 hrs by immunoblot analysis; format: functional, cell-based; details: dose 1.7-15 µM
Cytochrome P450 7A1 = Cytochrome P450 7A1 (Homo sapiens, UniProt P22680); experiment: Binding affinity to recombinant human CYP7A1 by spectrophotometric titration method; format: ADME; details: recombinant enzyme
MCF7 [12] = experiment: Effect on activated AKT protein level in human MCF7 cells at 1.7 to 15 uM measured after 48 hrs by immunoblot analysis; format: functional, cell-based; details: dose 1.7-15 µM

Chain of Cytochrome P450 7A1 (P22680 whole entry): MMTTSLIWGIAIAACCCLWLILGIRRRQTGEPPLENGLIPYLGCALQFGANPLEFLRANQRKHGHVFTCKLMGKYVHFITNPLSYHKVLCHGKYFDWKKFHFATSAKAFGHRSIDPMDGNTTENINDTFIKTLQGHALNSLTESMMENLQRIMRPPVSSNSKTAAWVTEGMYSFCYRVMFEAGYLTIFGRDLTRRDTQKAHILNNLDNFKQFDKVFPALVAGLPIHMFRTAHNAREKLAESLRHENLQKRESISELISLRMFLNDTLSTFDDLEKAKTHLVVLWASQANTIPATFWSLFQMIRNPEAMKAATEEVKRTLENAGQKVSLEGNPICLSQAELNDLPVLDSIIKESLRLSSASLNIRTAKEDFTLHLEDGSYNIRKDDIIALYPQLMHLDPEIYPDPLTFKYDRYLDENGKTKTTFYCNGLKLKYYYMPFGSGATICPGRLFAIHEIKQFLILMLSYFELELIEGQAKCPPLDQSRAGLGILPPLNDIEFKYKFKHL

SMILES | IC50 (MCF7 [1]) [µM] | IC50 (MDA-MB-231) [µM] | also measured
COc1ccc2c(c1)CC[C@@H]1[C@@H]2CC[C@]2(C)c3c(cnnc3P(=O)(Nc3ccccc3)Nc3ccccc3)C[C@@H]12 | > 25 | > 25 | –
CC(=O)O[C@H]1CC[C@@]2(C)C(=CC[C@@H]3[C@@H]2CC[C@]2(C)c4c(cnnc4P(=O)(c4ccccc4)c4ccccc4)C[C@@H]32)C1 | 14 | 17.7 | –
CC(=O)O[C@H]1CC[C@@]2(C)C(=CC[C@@H]3[C@@H]2CC[C@]2(C)c4c(cnnc4P(=O)(Nc4ccccc4)Nc4ccccc4)C[C@@H]32)C1 | > 25 | > 25 | –
COc1cccc2c1C(=O)c1c(O)c3c(c(O)c1C2=O)C[C@@](O)(C(=O)CO)C[C@@H]3O[C@H]1C[C@H](N)[C@H](O)[C@H](C)O1 [DOXORUBICIN] | 0.28 | 0.27 | IC50 at 72 h [2]: 45 nM
CC(C)(C)NP(=O)(NC(C)(C)C)c1nncc2c1[C@@]1(C)CC[C@H]3[C@@H](CC=C4CC(Cl)CC[C@@]43C)[C@@H]1C2 (stereo partly drawn) | 11.1 | 15.5 | –
C[C@]12CC[C@H]3[C@@H](CCC4Cc5c(cnnc5P(=O)(Nc5ccccc5)Nc5ccccc5)C[C@@]43C)[C@@H]1CC[C@@H]2O (stereo partly drawn) | 9.3 | 16.5 | –
CC(C)(C)NP(=O)(NC(C)(C)C)c1nncc2c1[C@@]1(C)CC[C@H]3[C@@H](CC=C4C[C@@H](O)CC[C@@]43C)[C@@H]1C2 | 24.7 | > 25 | –
CC(C)(C)NP(=O)(NC(C)(C)C)c1nncc2c1[C@@]1(C)CC[C@H]3[C@@H](CCC4=CC(=O)CC[C@@]43C)[C@@H]1C2 | 18.6 | 20.7 | –
C[C@]12CC[C@H]3[C@@H](CCC4Cc5c(cnnc5P(=O)(c5ccccc5)c5ccccc5)C[C@@]43C)[C@@H]1CC[C@@H]2O (stereo partly drawn) | 7.1 | 8.9 | –
C[C@]12CC[C@H](O)CC1=CC[C@@H]1[C@@H]2CC[C@]2(C)c3c(cnnc3P(=O)(Nc3ccccc3)Nc3ccccc3)C[C@@H]12 | 18.5 | > 25 | –
C[C@]12CC[C@H](O)CC1=CC[C@@H]1[C@@H]2CC[C@]2(C)c3c(cnnc3P(=O)(c3ccccc3)c3ccccc3)C[C@@H]12 | 17.5 | 7.4 | –
C[C@]12CCC(Cl)CC1=CC[C@@H]1[C@@H]2CC[C@]2(C)c3c(cnnc3P(=O)(Nc3ccccc3)Nc3ccccc3)C[C@@H]12 (stereo partly drawn) | > 25 | > 25 | –
COc1ccc2c(c1)CC[C@@H]1[C@@H]2CC[C@]2(C)c3c(cnnc3P(=O)(NC(C)(C)C)NC(C)(C)C)C[C@@H]12 | 12.7 | 16.7 | –
CC(C)(C)NP(=O)(NC(C)(C)C)c1nncc2c1[C@@]1(C)CC[C@H]3[C@@H](CC[C@H]4C[C@@H](O)CC[C@@]43C)[C@@H]1C2 | > 25 | > 25 | –
C[C@]12CC[C@H](O)C[C@@H]1CC[C@@H]1[C@@H]2CC[C@]2(C)c3c(cnnc3P(=O)(Nc3ccccc3)Nc3ccccc3)C[C@@H]12 | 17 | > 25 | –
C[C@]12CCC(=O)C=C1CC[C@@H]1[C@@H]2CC[C@]2(C)c3c(cnnc3P(=O)(c3ccccc3)c3ccccc3)C[C@@H]12 | 6.5 | 18.1 | Activity (Cytochrome P450 7B1): Not Active; Activity (MCF7 [3]): Active; Activity (MCF7 [4]): inactive; Activity (MCF7 [5]): Dose-Dependent Effect; Activity (MCF7 [6]): Active; Activity (MCF7 [7]): Dose-Dependent Effect; Activity (MCF7 [8]): Active; Activity [9]: Not Active; Activity (MCF7 [10]): inactive; Activity (Steroid 21-hydroxylase): Not Active; Activity (Aromatase): Not Active; Activity (MCF7 [11]): Active; Activity (Cytochrome P450 7A1): Not Active; Activity (MCF7 [12]): inactive
C[C@]12CC[C@@H]3c4ccc(O)cc4CC[C@H]3[C@@H]1Cc1cnnc(P(=O)(c3ccccc3)c3ccccc3)c12 | > 25 | > 25 | –
COc1ccc2c(c1)CC[C@@H]1[C@@H]2CC[C@]2(C)c3c(cnnc3P(=O)(c3ccccc3)c3ccccc3)C[C@@H]12 | 8.6 | 13.5 | –
CC/C(=C(\c1ccc(O)cc1)c1ccc(OCCN(C)C)cc1)c1ccccc1 [AFIMOXIFENE] | 5.2 | – | –
CC(C)(C)NP(=O)(NC(C)(C)C)c1nncc2c1[C@@]1(C)CC[C@@H]3c4ccc(O)cc4CC[C@H]3[C@@H]1C2 | 22.6 | > 25 | –
CC(=O)O[C@H]1CC[C@@]2(C)C(=CC[C@@H]3[C@@H]2CC[C@]2(C)c4c(cnnc4P(=O)(NC(C)(C)C)NC(C)(C)C)C[C@@H]32)C1 | 16.4 | > 25 | –
C[C@]12CC[C@@H]3c4ccc(O)cc4CC[C@H]3[C@@H]1Cc1cnnc(P(=O)(Nc3ccccc3)Nc3ccccc3)c12 | > 25 | > 25 | –
